Laboratory results taken from patent publication US20210386812A1, “DEVELOPMENT OF HEALTH FOOD SUPPLEMENTS AND ANTIOXIDANTS FOR CONTROLLING HYPERURICEMIA AND OXIDATIVE STRESS” (Baylor College of Medicine, priority 2018, published 2021).
pIC50: −log10 of the molar value. Several values for one entry are separate records, joined by “and”; a condition that tells them apart may be missing. Equal entries are not always repeated. Entries after “also recorded” stand apart in the source; their conditions may differ. Where two headings read alike, the source gives them in different places.

Experiments:
XO = conditions: in vitro; cited from earlier work
serum uric acid = assay: Hypouricemic effect in allantoxanamide-treated mice; type: in vivo, C57BL/6 mice; conditions: Allantoxanamide 200 mg/kg i.p., at both 1.5 hours and 3 hours; Allopurinol 13.3 mg/kg, recipe 41.7 and 83.4 mg/kg
Experimental: Recipe includes Japanese Thistle Extract, Grape Seed Extract, Amla Fruit Extract, Pine Bark Extract, Chinese Mint Extract and Folic acid. Mice were Intraperitoneally (i.p.)-injected with uricase inhibitor allantoxanamide to induce hyperuricemia in mice. […] Blood was taken from facial vein at 1.5 hour and 3 hour after the treatment. Serum uric acid level was measured the next day with a phosphotunstate method. N=4 per group.
Mouse experiment design, method and results. […] Folic acid solution was prepared separately by dissolving 2.6 mg folic acid in 1 ml 0.1 m potassium phosphate buffer, then 6 ul of this FA solution was added to the 10 ml extract solution.
Adult C57BL/6 mice (about 20 g body weight) were used. Four groups of mice (n=4 per group) were assigned for different treatments or controls (Table 12). Intraperitoneal (i.p.) injection of uricase inhibitor allantoxanamide can effectively block the conversion of uric acid to 5-hydroxyisourate and thus cause a marked increase in serum uric acid levels in mice, providing a hyperuricemic animal model (34). […] Blood was taken from facial vein at 1.5 hours and 3 hours after the treatment. Serum uric acid level was measured with a phosphotunstate method.

Xanthine oxidase (XO) [1] = molecular target: T1, Xanthine oxidase (XO) (Homo sapiens, UniProt P47989); assay: Xanthine oxidase (XO) inhibition assay in a cell-free system; conditions: for XO activity inhibition (in words): increasing concentrations
T1 sequence (P47989 whole entry, species assumed): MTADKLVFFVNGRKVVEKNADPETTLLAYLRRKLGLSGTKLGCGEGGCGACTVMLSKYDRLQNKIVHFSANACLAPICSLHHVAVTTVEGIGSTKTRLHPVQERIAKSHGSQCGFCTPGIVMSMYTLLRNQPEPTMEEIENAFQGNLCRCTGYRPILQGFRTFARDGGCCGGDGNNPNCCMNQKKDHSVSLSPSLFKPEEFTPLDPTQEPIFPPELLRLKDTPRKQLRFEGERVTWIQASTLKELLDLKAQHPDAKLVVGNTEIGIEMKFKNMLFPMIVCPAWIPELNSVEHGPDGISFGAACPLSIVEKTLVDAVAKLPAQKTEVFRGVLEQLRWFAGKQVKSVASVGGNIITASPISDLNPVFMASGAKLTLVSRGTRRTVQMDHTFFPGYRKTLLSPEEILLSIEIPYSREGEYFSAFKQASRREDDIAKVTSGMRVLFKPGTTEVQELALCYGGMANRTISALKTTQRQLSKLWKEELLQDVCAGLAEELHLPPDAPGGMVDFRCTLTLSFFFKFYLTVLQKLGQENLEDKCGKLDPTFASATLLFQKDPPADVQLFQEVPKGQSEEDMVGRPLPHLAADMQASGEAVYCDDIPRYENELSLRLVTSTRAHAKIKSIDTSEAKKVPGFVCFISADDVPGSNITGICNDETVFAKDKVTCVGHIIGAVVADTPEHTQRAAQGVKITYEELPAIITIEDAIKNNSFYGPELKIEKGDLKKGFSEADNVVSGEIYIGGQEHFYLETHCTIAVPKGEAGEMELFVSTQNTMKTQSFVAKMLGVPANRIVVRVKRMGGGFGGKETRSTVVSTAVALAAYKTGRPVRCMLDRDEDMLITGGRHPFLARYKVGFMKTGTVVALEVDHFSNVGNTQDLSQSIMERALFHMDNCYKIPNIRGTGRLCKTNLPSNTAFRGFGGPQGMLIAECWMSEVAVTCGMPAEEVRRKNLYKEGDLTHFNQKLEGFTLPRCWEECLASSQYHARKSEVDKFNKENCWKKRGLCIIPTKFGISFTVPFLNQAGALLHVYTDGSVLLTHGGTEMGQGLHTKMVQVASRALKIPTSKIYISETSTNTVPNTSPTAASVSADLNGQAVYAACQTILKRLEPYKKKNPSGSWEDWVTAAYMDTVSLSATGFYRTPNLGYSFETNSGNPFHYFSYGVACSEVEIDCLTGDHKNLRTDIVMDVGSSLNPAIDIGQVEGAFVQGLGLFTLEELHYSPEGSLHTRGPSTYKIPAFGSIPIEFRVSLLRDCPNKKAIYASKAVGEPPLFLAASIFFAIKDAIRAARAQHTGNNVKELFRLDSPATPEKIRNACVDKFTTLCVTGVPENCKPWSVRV
Experimental: All 72 herb extracts (100 g) are in the powder form. Each extract was dissolved in water or DMSO respectively with strong votex, at stock concentration of 50 mg/ml. The solution was kept at room temperature for 30 min before centrifugation at 14k rpm. The clear solution was used for assay of XO inhibitory activity. XO activity was determined using the method of continuous spectrophotometric rate measurements (60). The reaction mixture contained xanthine in 67 mM phosphate buffer (pH 7.4) and 20 nM XO with an activity of 5 uU/mL, with or without extract solution. After pre-incubating the extract (at 0-10 ul) with XO for 1 min at 25° C., 50 uM xanthine was added to initiate the formation of uric acid, and the increase of absorption of uric acid at 295 nm was monitored in a dynamic mode. Initial rate of XO activity was recorded. […] For initial screen of herb extracts, final concentration of each extract was 163 ug/ml. Percentage of inhibition is calculated: Percentage of inhibition=(1−test OD/blank OD)×100
XO inhibition assay for folic acid related molecules is similar to that for herb extracts. Folic acids were dissolved in DMSO. Dose-dependent of folic acids and photolysis effect were studied.
Furthermore, we performed a dose dependent XO inhibition assay for each of these 14 extracts (DMSO-soluble fractions). […] IC50 is an operational parameter defined as the concentration of inhibitor required for achieving 50% inhibition of the enzyme.
Folic acid and its two derivatives, dihydrofolic acid and tetrahydrofolic acid, were employed in the XO inhibition assay. When 20 nM XO was mixed with increasing concentrations of folic acid, dihydrofolic acid and tetrahydrofolic acid.
The initial rate of uric acid formation in the reaction system was recorded; and XO inhibition rate of each herb extract was calculated.
Furthermore, a dose dependent XO inhibition assay was performed for each of these 15 extracts. […] IC50 is an operational parameter defined as the concentration of inhibitor required for achieving 50% inhibition of the enzyme.

[2] = cited from earlier work
Xanthine oxidase (XO) [3] = molecular target: T1, Xanthine oxidase (XO); assay: XO inhibition combination assay of herb extract with folic acid or 5-MTHF, added separately without pre-mixing; conditions: read-out: XO activity inhibition
Experimental: All 14 traditional Chinese medicine herb extracts were tested. Folic acid (0.167 uM) and extract (13.3 ug/ml) were separately added into the XO reaction system without pre-mixing. XO activity was measured.
Fresh prepared 5-MTHF (3.3 uM) and herb extract (13.3 ug/ml) was added to XO reaction system separately, XO activity was recorded.
Eight herbal extracts were selected and tested. Folic acid (0.167 uM) and each extract at a defined concentration (ug/ml) were separately added into the XO reaction system without pre-mixing. XO activity was measured.
Based on the result of dose-dependent XO inhibition experiments for herb extracts and folic acid, a relatively small concentration of each extract (a total of 14 extracts) and folic acid were utilized for a combination assay.
Folic acid (0.167 uM) and extract (13.3 ug/ml) were separately added into the XO reaction system without pre-mixing. XO activity was measured.
The inventors also tested the combination of 5-MTHF with different traditional Chinese medicine herb extracts for their effect on XO activity in vitro (FIG. 10).
Based on the result of dose-dependent XO inhibition experiments for herb extracts and folic acid, a relatively small concentration of each of 8 herbal extracts and folic acid were selected for a combination assay. […] XO activity was measured (FIG. 13).

Row | SMILES | XO inhibitory effect (literature) (XO) | XO inhibitory potency relative to a comparator (in words) (Xanthine oxidase (XO) [1]; cell-free system) | XO activity inhibition (in words) (Xanthine oxidase (XO) [1]; 20 nM XO) | also measured
1 | Nc1nc2ncc(C=O)nc2c(=O)[nH]1 [6-formyl pterin] | very potent XO inhibitor | – | – | –
2 | Oc1ncnc2[nH]ncc12 [Allopurinol] | – | – | – | Serum uric acid levels (serum uric acid): significantly reduced serum uric acid levels
3 | O=Cc1cc(O)c(O)c([N+](=O)[O-])c1 [DHNB, 3,4-Dihydroxy-5-nitrobenzaldehyde] | – | – | – | pIC50 (Xanthine oxidase (XO) [1]): 5.52
4 | CN1c2c(nc(N)[nH]c2=O)NCC1CNc1ccc(C(=O)N[C@@H](CCC(=O)O)C(=O)O)cc1 (stereo partly drawn) [Extract 5-MTHF, 5-methyl tetrahydrofolate] | – | weaker than folic acid | effectively inhibited XO activity; also recorded: inhibited XO activities in a concentration-dependent manner | pIC50 (Xanthine oxidase (XO) [1]; read-out: IC50 for XO inhibition, 20 nM XO, cell-free system): ~4.45 and 4.45
5 | Nc1nc2c(c(=O)[nH]1)N=C(CNc1ccc(C(=O)N[C@@H](CCC(=O)O)C(=O)O)cc1)CN2 [dihydrofolic acid] | stronger than that of folic acid | dihydrofolic acid>tetrahydrofolic>folic acid | significantly inhibited XO activity | XO inhibitory potency relative to a comparator (in words) (Xanthine oxidase (XO) [1]; cell-free system, listed as Dihydrofolic acid): more potent than folic acid
6 | Cc1nc(-c2ccc(OCC(C)C)c(C#N)c2)sc1C(=O)O [febuxostat] | – | – | – | Patients with transaminase elevations greater than three times the upper limit of normal ([2]; in some studies): 2-3%; Patients with cutaneous adverse effects ([2]; initial clinical studies): about 2%
7 | Nc1nc2ncc(CNc3ccc(C(=O)N[C@@H](CCC(=O)O)C(=O)O)cc3)nc2c(=O)[nH]1 [folic acid] | – | stronger than Allopurinol and DHNB | significantly inhibited XO activity | inhibition at 0.167 µM (Xanthine oxidase (XO) [3]): 16.5%; pIC50 (Xanthine oxidase (XO) [1]): 6.12
8 | Nc1nc2ncc(C(=O)O)nc2c(=O)[nH]1 [pterin-6-carboxylic acid] | no XO inhibitory effect | – | – | –
9 | Nc1nc2c(c(=O)[nH]1)NC(CNc1ccc(C(=O)N[C@@H](CCC(=O)O)C(=O)O)cc1)CN2 (stereo partly drawn) [tetrahydrofolic acid] | stronger than that of folic acid | more potent than folic acid | significantly inhibited XO activity | XO inhibitory potency relative to a comparator (in words) (Xanthine oxidase (XO) [1]; cell-free system, listed as tetrahydrofolic): dihydrofolic acid>tetrahydrofolic>folic acid
